One data set concerns the target H Nav 1.2 (Homo sapiens, UniProt Q99250). The data set is described as follows: Functional assay. Format: biochemical. The settings on record: read-out: Inhibition at 10 µM. On the procedure:
(§1) Cellular Aβ release assays were done in CHO cells stably transfected with human wild‐type and human APP were done as described (Neumann et al, 2015). Determinations of logD, pKa, and binding to brain homogenates were done internally at Novartis, Basel. Plasma protein binding was determined by equilibrium dialysis using diluted plasma from the corresponding species. MDR‐1‐MDCK cells were obtained from Prof. A. Berns, Netherlands Cancer Institute, Amsterdam NL, and bi‐directional transport measurements were done as described (Rueeger et al, 2011). Receptor binding assays were done against an internal receptor panel and externally at Ricerca Biosciences, Peitou, Taiwan. In vitro binding and cellular patch clamp assays for hERG were done at Preclinical Safety, Novartis, Basel.

The target of data set [1] is Monoamine transporter VMAT2 (Rattus norvegicus, UniProt Q01827). The experiment in a line: Functional assay. Format: biochemical. To be noted: read-out: Inhibition at 10 µM. The method, then:
as §1

Another data set deals with APP23‐transgenic mice. The experiment in a line: Chronic treatment of APP23-transgenic mice, 6 months in food. Format: in vivo, mouse. On the procedure:
The total amount of Aβ40 and Aβ42 in formic acid‐solubilized forebrain was determined by Aβ immunoassay. […] Next, we investigated the effects of long‐term Aβ reduction on downstream pathology relevant for Alzheimer's disease, in particular neuroinflammation. Specifically, we used double‐immunofluorescence staining with NT12+anti‐Iba1 and NT12+anti‐GFAP to examine the number and localization of microglia and activated astrocytes, respectively (Fig 4E). […] The reason for the different sensitivity of microglia and astrocytes distant to plaques is currently not clear.
Electrochemiluminescence immunoassays (Mesoscale Diagnostics, Rockville, MD, USA) were used to determine Aβ38, Aβ40, Aβ42, sAPPα, and sAPPβ. For studies in normal mice and rats, the endogenous Aβ40 was extracted from the brain homogenate with 1% Triton X‐100, and the 4G8‐based assay kit was used for quantification according to the manufacturer's instructions. CSF was collected from the cisterna magna and also analyzed using the 4G8 kit. For studies in dogs, CSF was collected via a ventricular port, and the 6E10‐based Mesoscale Diagnostics kit for Aβ was used. For studies in APP23 mice, Aβ40 and Aβ42 were determined after extraction with 70% formic acid and subsequent neutralization.
Amyloid plaques were stained using the Novartis-internal rabbit anti-Aβ antibody NT12, which recognizes all forms of Aβ (Neumann et al, 2015). Activated astrocytes were detected using a commercial rabbit anti-GFAP (Z0334, Dako Schweiz GmbH, Baar, Switzerland, dilution 1:2000 in antibody diluent). Microglia cells were detected using a rabbit anti-Iba1 antibody (019-19741, Wako Chemicals GmbH, Neuss, Germany, dilution 1:200 in antibody diluent). All stainings were performed using the fully automated instrument Ventana Discovery® Ultra (Roche Diagnostics Schweiz AG, Rotkreuz, Switzerland). All chemicals were provided by Roche Diagnostic. Paraffin-embedded brain tissue sections of 3 µm were freshly cut and collected on SuperFrost+ slides. The tissues sections were de-paraffinized and rehydrated under solvent-free conditions (EZprep solution) followed by antigen retrieval (demasking) performed by heat retrieval cycles for 32 min in EDTA-based buffer (CC1 solution). Subsequently, slides were blocked for 4 min using the DISC Inhibitor RUO (reference 07017944001). The primary antibody anti-NT12 diluted at 1:20 000 in antibody diluent was manually added to tissue sections and incubated for 1h at room temperature. A short post-fixation (glutaraldehyde at 0.05%) was done before applying the […]
Detection was performed using the DISCOVERY FITC® following the manufacturer’s recommendations. Slides were then heat denaturated at 92°C for 20 min before a manual application of the second primary antibody (anti-GFAP diluted at 1:2000, anti-Iba1 diluted at 1:200) and incubated for 1h at room temperature. Sections were then incubated for 20 min at room temperature with UltraMap-anti-Rabbit HRP antibody, and the DISCOVERY Rhodamine kit […]
The slides were washed and mounted using Prolong® Gold antifade reagent (P36931, ThermoFisher, Switzerland) and further scanned with the Hamamatsu slide scanner instrument […]
(NanoZoomer 2.0 HT, scanning software NDP-Scan Version 2.5, Hamamatsu Photonics France, Swiss Office, Solothurn, Switzerland) at the 40x objective. The scanning settings were as follow: the exposure time with the DAPI filter was set at 57 ms, as was the FITC filter. The exposure time for the TRITC filter (detection of Rhodamine) was set at 14.2 ms.
For the quantitative plaque and blood vessel-associated Aβ evaluation based on image analysis, a proprietary image analysis platform (ASTORIA, Automated Stored Image Analysis) was developed based on MS Visual Studio 2010 and many functions from Matrox MIL V9 libraries (Matrox Inc, Quebec, Canada).
For the Aβ plaque, neuroinflammation and blood vessel analyses, the following sequence of steps was performed. (1) Slides were scanned with Hamamatsu Nanozoomer at 40x […]
magnification. […]

For a further data set, the system named is CSF Aβ. The experiment in a line: Human CSF Aβ after 2-week once-daily dosing. Format: in vivo. The settings on record: 2 weeks, 24 h after last dose, mean ± SEM. The method, then: (§2) (A) Changes in Aβ40 relative to baseline values. (B) Changes in sAPPβ relative to baseline values.
CSF was sampled by single lumbar punctures at baseline and 24 h after the last dose, and the change in Aβ concentrations from baseline to end of treatment was determined.
(§3) Human CSF was collected from an indwelling spinal catheter inserted into the lower spinal canal (in the single ascending dose (SAD) PD first in human (FIH) study) or by a lumbar puncture (in the multiple ascending dose (MAD) PD Phase I study and Phase IIa study), and by trained personnel at the site and as per their standard operating procedure (SOP). CSF Aβ38, Aβ40, Aβ42, sAPPα, and sAPPβ were quantified in human CSF with 0.2% (v/v) Tween®‐20 using validated sandwich‐based multiplexed electrochemiluminescence methods (MesoScale Discovery, […], MD, USA).

Another data set has as its system healthy participants. The experiment in a line: Safety and tolerability in early clinical studies. Format: in vivo, human. The settings on record: for dose up to which no dose-limiting safety or tolerability findings were observed: participants ≥ 60 years. On the procedure:
Only the single ascending dose studies were performed in adults 18–55 or 20–45 years of age, whereas the participants in all subsequent single and multiple dose studies were cognitively normal male and post‐menopausal female subjects ≥ 60 years of age, similar to the age range of our target population in the Generation Program.
For further details, see the Appendix Table S10 in Appendix and the accompanying clinical protocols synopsis (Appendix Table S11).

A further data set has as its system CSF Aβ40 and sAPPβ. The data set is described as follows: Human CSF APP metabolites after single dose (serial CSF sampling). Format: in vivo.
Text: We investigated CSF Aβ and sAPPβ levels in humans by serial CSF sampling via an intrathecal catheter. […] Under these conditions, where Aβ production has completely stopped, the curves most likely reflect the rate of physiological clearance of Aβ40 and sAPPβ from human CSF.
as §2, §3

[2] abbreviates: after a 750 mg CNP520 dose, n=6.

Each structure is given as a SMILES string. A value given as a limit tells only on which side of the number the result lay.

Chain of H Nav 1.2 (Q99250 whole entry): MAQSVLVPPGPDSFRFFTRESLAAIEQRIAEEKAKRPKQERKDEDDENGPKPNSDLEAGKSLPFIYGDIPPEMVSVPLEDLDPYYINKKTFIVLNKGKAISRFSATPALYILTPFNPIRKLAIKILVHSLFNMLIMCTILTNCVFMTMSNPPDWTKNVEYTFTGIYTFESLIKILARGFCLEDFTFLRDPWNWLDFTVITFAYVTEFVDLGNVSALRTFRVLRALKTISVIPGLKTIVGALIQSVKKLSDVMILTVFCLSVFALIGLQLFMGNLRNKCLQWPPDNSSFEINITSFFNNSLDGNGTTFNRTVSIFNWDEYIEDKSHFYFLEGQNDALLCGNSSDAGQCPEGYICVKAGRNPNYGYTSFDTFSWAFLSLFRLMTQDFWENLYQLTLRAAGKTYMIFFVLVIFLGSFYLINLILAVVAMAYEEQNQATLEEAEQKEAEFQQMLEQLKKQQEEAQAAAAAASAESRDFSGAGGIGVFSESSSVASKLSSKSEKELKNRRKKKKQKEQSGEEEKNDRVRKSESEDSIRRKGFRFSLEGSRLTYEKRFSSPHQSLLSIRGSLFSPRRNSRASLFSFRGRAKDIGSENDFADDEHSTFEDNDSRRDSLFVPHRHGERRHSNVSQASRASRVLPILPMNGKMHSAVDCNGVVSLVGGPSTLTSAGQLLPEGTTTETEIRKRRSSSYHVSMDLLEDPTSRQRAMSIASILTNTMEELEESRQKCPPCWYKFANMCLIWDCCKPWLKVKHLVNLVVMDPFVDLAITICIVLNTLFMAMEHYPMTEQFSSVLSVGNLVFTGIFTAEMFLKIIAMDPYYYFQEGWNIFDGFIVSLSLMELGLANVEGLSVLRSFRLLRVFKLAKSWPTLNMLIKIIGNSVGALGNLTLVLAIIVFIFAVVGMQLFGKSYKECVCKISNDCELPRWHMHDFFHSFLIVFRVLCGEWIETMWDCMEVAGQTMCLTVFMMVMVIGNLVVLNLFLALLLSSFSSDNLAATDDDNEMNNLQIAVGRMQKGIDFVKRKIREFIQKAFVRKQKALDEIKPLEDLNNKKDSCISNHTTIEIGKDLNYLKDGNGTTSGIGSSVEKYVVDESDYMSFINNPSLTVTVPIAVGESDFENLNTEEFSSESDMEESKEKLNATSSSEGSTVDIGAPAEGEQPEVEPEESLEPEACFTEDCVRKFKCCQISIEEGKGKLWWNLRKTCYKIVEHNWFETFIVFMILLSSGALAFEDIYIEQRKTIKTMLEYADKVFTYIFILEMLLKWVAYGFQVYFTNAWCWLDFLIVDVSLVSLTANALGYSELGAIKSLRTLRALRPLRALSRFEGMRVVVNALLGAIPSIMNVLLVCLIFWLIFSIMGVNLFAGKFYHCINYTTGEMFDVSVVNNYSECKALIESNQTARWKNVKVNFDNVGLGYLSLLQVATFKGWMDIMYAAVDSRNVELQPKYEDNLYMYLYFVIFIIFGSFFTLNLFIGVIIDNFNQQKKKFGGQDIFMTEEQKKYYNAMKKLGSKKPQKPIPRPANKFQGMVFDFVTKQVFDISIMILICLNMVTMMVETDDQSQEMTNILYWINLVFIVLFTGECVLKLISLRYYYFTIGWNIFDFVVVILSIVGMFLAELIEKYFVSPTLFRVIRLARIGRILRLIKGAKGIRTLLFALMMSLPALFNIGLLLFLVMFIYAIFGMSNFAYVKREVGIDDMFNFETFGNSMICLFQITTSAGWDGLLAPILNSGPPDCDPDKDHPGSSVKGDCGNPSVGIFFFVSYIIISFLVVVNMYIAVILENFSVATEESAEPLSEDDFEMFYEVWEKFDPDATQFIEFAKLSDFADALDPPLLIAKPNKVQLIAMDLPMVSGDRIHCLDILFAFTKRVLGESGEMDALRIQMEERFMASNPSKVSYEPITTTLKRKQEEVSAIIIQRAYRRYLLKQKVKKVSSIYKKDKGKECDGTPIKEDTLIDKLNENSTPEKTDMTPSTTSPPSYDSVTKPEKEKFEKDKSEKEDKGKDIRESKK
Chain of Monoamine transporter VMAT2 (Q01827 whole entry): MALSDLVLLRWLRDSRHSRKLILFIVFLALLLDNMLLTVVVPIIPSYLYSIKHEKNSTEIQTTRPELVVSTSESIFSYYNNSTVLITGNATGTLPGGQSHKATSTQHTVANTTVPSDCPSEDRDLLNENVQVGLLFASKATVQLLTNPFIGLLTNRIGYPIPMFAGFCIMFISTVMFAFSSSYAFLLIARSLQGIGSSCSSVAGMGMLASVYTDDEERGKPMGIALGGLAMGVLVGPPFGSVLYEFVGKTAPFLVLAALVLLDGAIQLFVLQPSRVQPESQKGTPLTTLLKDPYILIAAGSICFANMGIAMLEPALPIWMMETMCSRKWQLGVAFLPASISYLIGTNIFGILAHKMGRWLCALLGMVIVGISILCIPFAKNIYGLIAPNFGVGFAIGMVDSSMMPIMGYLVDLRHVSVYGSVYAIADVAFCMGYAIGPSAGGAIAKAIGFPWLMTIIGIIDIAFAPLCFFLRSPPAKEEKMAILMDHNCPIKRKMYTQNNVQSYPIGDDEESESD

Broadly, the inhibition is the percentage by which the read-out fell short of the control. Take `C[C@@]1(c2nc(NC(=O)c3ncc(C(F)(F)F)cc3Cl)ccc2F)CO[C@@](C)(C(F)(F)F)C(N)=N1` [CNP520]: the inhibition at 10 µM at H Nav 1.2 came to 23.6%; in data set [1] it was 80%. Also, the “CNP520 concentration in blood and brain at end of study” value with APP23‐transgenic mice (4 and 40 mg/kg/day in food) is recorded as “approximately dose‐proportional”. Besides, the “total Aβ-plaque area in the cortex (normalized to sample area) compared with vehicle” value in the data set with APP23‐transgenic mice (4 and 40 mg/kg/day in food, 6 months, dose-dependent) was “decreased”. The “sAPPα in mouse brain” value in the data set with APP23‐transgenic mice (6 months) is reported as “increased”. Also, the “increase in GFAP-stained astrocytes” value in the data set on APP23‐transgenic mice (6 months, dose-dependent) is listed as “prevented this increase”. For the same molecule, the “sAPPβ in mouse brain” value in the data set on APP23‐transgenic mice (6 months, dose-dependent) is recorded as “decreased”. Further, in the data set with APP23‐transgenic mice (high dose 40 mg/kg/day, 6 months), the “formic acid-soluble Aβ40 and Aβ42 in forebrain compared with vehicle” value is given as “profoundly reduced”. Moreover, the “effect on CAA (vascular Aβ) in APP23 mice” value in the data set with APP23‐transgenic mice (separate study, first data, authors' response in review file) is “reduction of vascular Aβ”. For the same molecule, the “Aβ reduction in CSF from baseline to end of treatment” value in the data set on CSF Aβ (10 mg daily dose) came out at 59.8 ± 9.88%; with CSF Aβ (300 mg daily dose) it was 93.9 ± 2.09%. The “skin-related AEs, mostly driven by pruritus” value in the data set with healthy participants (3-month study, 4% for placebo) was 18%. Moreover, the abuse potential entry with healthy participants (clinical studies) is “no signal for abuse potential”. For the same molecule, the “dose up to which no dose-limiting safety or tolerability findings were observed” value in the data set with healthy participants (for 2 weeks (maximum multiple dose tested)) was at most 300 mg; with healthy participants (for 3 months) it was “up to 85 mg”; with healthy participants (single dose), “up to 750 mg”. Further, in the data set with CSF Aβ40 and sAPPβ (750-mg single dose, mean ± SD), the “maximum reduction in CSF Aβ40 from baseline” value turned out to be 79.1 ± 8.9%. The “first-order rate constant k, Aβ40 in human CSF” value in the data set on CSF Aβ40 and sAPPβ (setting [2]) amounted to 0.068 ± 0.002 h⁻¹. Also, the “first-order rate constant k, sAPPβ in human CSF” value in the data set with CSF Aβ40 and sAPPβ (setting [2]) turned out to be 0.043 ± 0.004 h⁻¹.

The values above are taken from article PMC6220303 (EMBO Molecular Medicine, 2018).
